Experiment [1] deals with T1, Glucose-dependent insulinotropic receptor (Homo sapiens) (UniProt Q8TDV5).
T1 sequence (whole entry): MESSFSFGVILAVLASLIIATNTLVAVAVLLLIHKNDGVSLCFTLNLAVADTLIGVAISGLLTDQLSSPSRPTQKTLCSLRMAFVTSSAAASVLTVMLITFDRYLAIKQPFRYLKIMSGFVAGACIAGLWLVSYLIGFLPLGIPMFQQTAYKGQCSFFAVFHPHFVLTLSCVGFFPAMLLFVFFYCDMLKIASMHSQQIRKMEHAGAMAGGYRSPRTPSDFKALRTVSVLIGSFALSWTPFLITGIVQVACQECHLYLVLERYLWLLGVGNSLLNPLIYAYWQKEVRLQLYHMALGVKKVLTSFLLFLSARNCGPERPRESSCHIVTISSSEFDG
In words: Intrinsic activity at human GPR119 expressed in MIN6 cells assessed as intracellular cAMP level after 45 mins by ALPHAscreen cAMP assay relative to N-(4-methanesulfonylphenyl)-5-nitro-6-[4-(phenylsulfanyl)piperidin-1-yl]pyrimidin-4-amine. In kind it is functional, cell-based.

The target in experiment [2] is T2, Glucose-dependent insulinotropic receptor (Homo sapiens, UniProt Q8TDV5).
T2 sequence (Q8TDV5 whole entry): T1 sequence (whole entry)
As to the kind of experiment: Agonist activity at human GPR119 expressed in MIN6 cells assessed as intracellular cAMP level after 45 mins by ALPHAscreen cAMP assay. The format is functional, cell-based. (cAMP levels reflect the balance of adenylyl cyclase and phosphodiesterase activity.)

Turning to `N#Cc1cc(F)c(NC(=O)C2=NOC3(CCN(c4nc(-c5ccccc5)no4)CC3)C2)cc1F`, in experiment [1], the Intrinsic activity turned out to be 173%. Moreover, the EC50 (in general, the concentration needed to bring the measured effect to its halfway point) in experiment [2] worked out at 30 nM.
For `CC(C)(C)OC(=O)N1CCC2(CCN(C(=O)Nc3ccc(S(C)(=O)=O)cc3Br)CC2)CC1` the same measures were 165% and 800 nM.
As for `CC(C)(C)OC(=O)N1CCC2(CC1)CC(C(=O)Nc1cc(F)c(C#N)cc1F)=NO2`, in experiment [1], the Intrinsic activity turned out to be 170%. The EC50 in experiment [2] was 93 nM.
In the case of `C[S+]([O-])c1cc(F)c(NC(=O)C2=NOC3(CCN(c4nc(-c5ccccc5)no4)CC3)C2)cc1F` (stereo not drawn), in experiment [1], the Intrinsic activity amounted to 160%. The 50% effective concentration (EC50) in experiment [2] was 21 nM.

Values taken from ChEMBL document CHEMBL2177041, “Identification of new potent GPR119 agonists by combining virtual screening and combinatorial chemistry” (J Med Chem, 2012).
